Here are results for one substance from patent publication US20130089505A1, “SINGLE VIAL FORMULATION FOR MEDICAL GRADE CYANOACRYLATE” (priority 2007, published 2013).

The nature of this series: Viscosity of cyanoacrylate monomer, oligomer and formulation. As to conditions: monomer free of 4-methoxyphenol and SO2. Format: physicochemical. The text has this:
In one embodiment, an alkyl cyanoacrylate monomer can be treated to form an alkyl cyanoacrylate oligomer with viscosity greater than the alkyl cyanoacrylate monomer. For example, an n-hexyl cyanoacrylate monomer can be treated to form an n-hexyl cyanoacrylate oligomer. Preferred oligomers result from photochemical treatment of an alkyl cyanoacrylate monomer, to produce a mixture that includes partially polymerized cyanoacrylate and that has a higher viscosity than the alkyl cyanoacrylate monomer from which it is formed. For example, the viscosity of the alkyl cyanoacrylate oligomer can advantageously be from about 10 centipoise to about 1000 centipoise and the viscosity of the alkyl cyanoacrylate monomer, from which the alkyl cyanoacrylate oligomer is formed, can be from about 2 centipoise to about 5 centipoise as measured by a rheometer. Typically, the oligomer will have a viscosity of from about 10 centipoise to about 50 centipoise.
The purified n-hexyl cyanoacrylate monomer from Example 1, containing 4-methoxyphenol, was treated with Aldrich HQ & MEHQ inhibitor remover, Sigma-Aldrich, Inc., St. Louis, Mo., USA (2005-2006 Catalog #306320), to remove the p-methoxyphenol, followed by bubbling argon through the n-hexyl cyanoacrylate monomer to remove SO2. The viscosity of the purified n-hexyl cyanoacrylate, free of 4-methoxyphenol and SO2, was ˜4 centipoise. […]

n-hexyl cyanoacrylate: the viscosity is given as roughly 4 centipoise.
